This assay has as its target T1, recombinant METTL3/METTL14 complex (Homo sapiens, UniProt Q86U44).
T1 construct: purchased Active Motif 311970; host or cells: Sf9 cells
The experiment in a line: METTL3/14 Scintillation Proximity Assay (SPA), RNA methyltransferase activity. The class given is biochemical. The following applies: 5.31 nM METTL3/14 complex, 250 nM RNA substrate, 1 μM 3H-SAM, 90 min; for compounds marked * best of the two separated forms. (Scintillation proximity formats need no separation of bound from free tracer.)

Some results are limits rather than exact numbers.

T1 sequence (Q86U44 whole entry): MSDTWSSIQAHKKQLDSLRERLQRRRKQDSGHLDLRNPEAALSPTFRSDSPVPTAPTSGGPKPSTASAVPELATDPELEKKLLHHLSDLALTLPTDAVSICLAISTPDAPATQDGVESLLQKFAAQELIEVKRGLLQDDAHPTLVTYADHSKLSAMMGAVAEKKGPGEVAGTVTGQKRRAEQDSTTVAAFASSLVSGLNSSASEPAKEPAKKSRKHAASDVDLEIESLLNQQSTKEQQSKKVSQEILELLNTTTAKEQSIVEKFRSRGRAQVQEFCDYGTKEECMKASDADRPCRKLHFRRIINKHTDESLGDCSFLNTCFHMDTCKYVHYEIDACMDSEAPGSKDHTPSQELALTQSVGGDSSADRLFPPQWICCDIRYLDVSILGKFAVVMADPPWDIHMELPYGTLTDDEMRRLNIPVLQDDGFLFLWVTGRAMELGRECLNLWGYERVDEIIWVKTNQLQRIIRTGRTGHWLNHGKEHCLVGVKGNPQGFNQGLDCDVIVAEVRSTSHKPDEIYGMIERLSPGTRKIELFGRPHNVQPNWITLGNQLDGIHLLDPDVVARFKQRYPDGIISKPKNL
T1 sequence (Q9HCE5 whole entry partner): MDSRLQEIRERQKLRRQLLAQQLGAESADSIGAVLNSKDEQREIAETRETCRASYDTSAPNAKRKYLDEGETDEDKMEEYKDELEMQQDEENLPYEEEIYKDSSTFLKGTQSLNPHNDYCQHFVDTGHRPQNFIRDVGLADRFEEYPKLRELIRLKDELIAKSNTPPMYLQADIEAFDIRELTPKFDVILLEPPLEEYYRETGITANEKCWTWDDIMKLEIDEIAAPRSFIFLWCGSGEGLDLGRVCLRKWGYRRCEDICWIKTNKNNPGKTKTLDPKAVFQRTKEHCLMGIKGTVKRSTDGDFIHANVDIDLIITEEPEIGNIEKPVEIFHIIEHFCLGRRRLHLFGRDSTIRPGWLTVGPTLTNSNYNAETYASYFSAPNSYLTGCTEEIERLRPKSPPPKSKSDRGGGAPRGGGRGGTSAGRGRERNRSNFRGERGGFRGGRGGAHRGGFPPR

For the molecule `COc1cncc(-c2nnn(Cc3ccc(N4CCC[C@@H](NCC5CCC5)C4)cc3)n2)c1` [Compound 145, (R)-N-(cyclobutylmethyl)-1-(4-((5-(5-methoxypyridin-3-yl)-2H-tetrazol-2-yl)methyl)phenyl)piperidin-3-amine], the half-maximal inhibitory concentration (IC50) (commonly the concentration that gives 50% inhibition) was 50 to 500 nM.
Take `O=c1[nH]c(-c2cn(Cc3ccc(N4CCC[C@@H](NCC5CCC5)C4)nn3)nn2)cc2ccccc12` [Compound 048, (R)-3-(1-((6-(3-((cyclobutylmethyl)amino)piperidin-1-yl)pyridazin-3-yl)methyl)-1H-1,2,3-triazol-4-yl)isoquinolin-1(2H)-one]: the IC50 is at most 50 nM.
The same measure for `COc1cncc(-c2cn(Cc3ccc(N4CCC(F)(F)C(NCC5CCC5)C4)nn3)nn2)c1` (stereo not drawn) [Compound 059, N-(cyclobutylmethyl)-4,4-difluoro-1-(6-((4-(5-methoxypyridin-3-yl)-1H-1,2,3-triazol-1-yl)methyl)pyridazin-3-yl)piperidin-3-amine]: 50 to 500 nM; for `CC(C(=O)Nc1cc(=O)n2ccccc2n1)c1ccc(N2CCC[C@@H](NCC3CCC3)C2)nn1` (stereo partly drawn) [Compound 275, 2-(6-((R)-3-((cyclobutylmethyl)amino)piperidin-1-yl)pyridazin-3-yl)-N-(4-oxo-4H-pyrido[1,2-a]pyrimidin-2-yl)propanamide]: 50 to 500 nM.
Turning to `O=c1cc(-c2cn(Cc3ccc(N4CCC[C@@H](NCC5CCC5)C4)cc3)nn2)nc2ccccn12` [Compound 128, (R)-2-(1-(4-(3-((cyclobutylmethyl)amino)piperidin-1-yl)benzyl)-1H-1,2,3-triazol-4-yl)-4H-pyrido[1,2-a]pyrimidin-4-one], the IC50 is at most 50 nM.
To `N#Cc1cncc(-c2cn(Cc3ccc(N4CCC[C@@H](NCC5CCC5)C4)nn3)nn2)c1` [Compound 021, (R)-5-(1-((6-(3-((cyclobutylmethyl)amino)piperidin-1-yl)pyridazin-3-yl)methyl)-1H-1,2,3-triazol-4-yl)nicotinonitrile] belongs 50 to 500 nM.
For the molecule `COc1cncc(-c2nnn(C(C)c3ccc(N4CCC[C@@H](NCC5CCC5)C4)nn3)n2)c1` (single isomer, unassigned) [Compound 190], the IC50 is at most 50 nM.
For the molecule `COc1cncc(-c2cc(C(C)n3ccc(N4CCC[C@@H](NCC5CCC5)C4)cc3=O)sn2)c1` (mixture of isomers) [Compound 204, 4-((R)-3-((cyclobutylmethyl)amino)piperidin-1-yl)-1-(1-(3-(5-methoxypyridin-3-yl)isothiazol-5-yl)ethyl)pyridin-2(1H)-one], the 50% inhibitory concentration (IC50) was at most 50 nM.
To `COc1cncc(-c2nnc(C(C)n3ccc(N4CCC[C@@H](NCC5CCC5)C4)cc3=O)s2)c1` (stereo partly drawn) [Compound 119, 4-((R)-3-((cyclobutylmethyl)amino)piperidin-1-yl)-1-(1-(5-(5-methoxypyridin-3-yl)-1,3,4-thiadiazol-2-yl)ethyl)pyridin-2(1H)-one] belongs at most 50 nM; to `Cc1cncc(-c2cn(C(C)n3ccc(N4CCC[C@@H](NCC5CCC5)C4)cc3=O)nn2)c1` (mixture of isomers) [Compound 080, 4-((R)-3-((cyclobutylmethyl)amino)piperidin-1-yl)-1-(1-(4-(5-methylpyridin-3-yl)-1H-1,2,3-triazol-1-yl)ethyl)pyridin-2(1H)-one], at most 50 nM; to `CC(c1cnn(-c2cc(N(C)C)cnn2)c1)n1ccc(N2CCC[C@@H](NCC3CC3)C2)cc1=O` (mixture of isomers) [Compound 224, 4-((R)-3-((cyclopropylmethyl)amino)piperidin-1-yl)-1-(1-(1-(5-(dimethylamino)pyridazin-3-yl)-1H-pyrazol-4-yl)ethyl)pyridin-2(1H)-one], at most 50 nM.
For the molecule `CCOc1cncc(-c2cn(C(C)n3ccc(N4CCC[C@@H](NCC5CCC5)C4)cc3=O)nn2)c1` (mixture of isomers) [Compound 103, 4-((R)-3-((cyclobutylmethyl)amino)piperidin-1-yl)-1-(1-(4-(5-ethoxypyridin-3-yl)-1H-1,2,3-triazol-1-yl)ethyl)pyridin-2(1H)-one], the IC50 was at most 50 nM.
The same measure for `COc1cncc(-c2cn(C(C)n3ccc(N4CCC[C@@H](NCC5CCC5)C4)cc3=O)nn2)n1` (single isomer, unassigned) [Compound 105]: at most 50 nM; for `CC(n1cc(-c2cncc(N(C)C(F)(F)F)c2)nn1)n1ccc(N2CCC[C@@H](NCC3CC3)C2)cc1=O` (single isomer, unassigned) [Compound 236]: at most 50 nM.
For `COc1cnnc(-c2cn(Cc3ccc(N4CCC[C@@H](NCC5CCC5)C4)cc3)nn2)c1` [Compound 136, (R)-N-(cyclobutylmethyl)-1-(4-((4-(5-methoxypyridazin-3-yl)-1H-1,2,3-triazol-1-yl)methyl)phenyl)piperidin-3-amine], the IC50 was at most 50 nM.
To `COc1cc(-c2cn(Cc3ccc(N4CCC[C@@H](NC(C)C5CC5)C4)nn3)nn2)c2cn[nH]c2c1` (single isomer, unassigned) [Compound 045] belongs at most 50 nM.
The same measure for `CC(n1cc(-c2cncc(Br)c2)nn1)n1ccc(N2CCC[C@@H](NCC3CCC3)C2)cc1=O` (single isomer, unassigned) [Compound 152]: at most 50 nM; for `COc1cncc(-c2cn(C(c3ccc(N4CCC[C@@H](NCC5CCC5)C4)nn3)C3CC3)nn2)c1` (single isomer, unassigned) [Compound 084]: at most 50 nM.
With `O=C(NCc1ccc(N2CCC[C@@H](NCC3CC3)C2)nn1)c1cc(=O)n2ccccc2n1` [Compound 016, (R)-N-((6-(3-((cyclopropylmethyl)amino)piperidin-1-yl)pyridazin-3-yl)methyl)-4-oxo-4H-pyrido[1,2-a]pyrimidine-2-carboxamide], the IC50 is 50 to 500 nM.
In the case of `c1cc(N2CCC[C@@H](NCC3CCC3)C2)nnc1Cn1cc(-c2csc3cncn23)nn1` [Compound 034, (R)-N-(cyclobutylmethyl)-1-(6-((4-(imidazo[5,1-b]thiazol-3-yl)-1H-1,2,3-triazol-1-yl)methyl)pyridazin-3-yl)piperidin-3-amine], the IC50 was at most 50 nM.
Consider `COc1cnnc(-c2cn(Cc3ccc(N4CCC[C@@H](NCC5CCC5)C4)cn3)nn2)c1` [Compound 118, (R)-N-(cyclobutylmethyl)-1-(6-((4-(5-methoxypyridazin-3-yl)-1H-1,2,3-triazol-1-yl)methyl)pyridin-3-yl)piperidin-3-amine], for which the concentration for half-maximal inhibition (IC50) is at most 50 nM.
The same measure for `CC(n1cc(-c2cncc(OC(F)F)c2)nn1)n1ccc(N2CCC[C@@H](NCC3CCC3)C2)cc1=O` (stereo partly drawn) [Compound 131]: at most 50 nM; for `CC(n1cc(-c2cncc(N3CCOCC3)c2)nn1)n1ccc(N2CCC[C@@H](NCC3CCC3)C2)cc1=O` (mixture of isomers) [Compound 129, 4-((R)-3-((cyclobutylmethyl)amino)piperidin-1-yl)-1-(1-(4-(5-morpholinopyridin-3-yl)-1H-1,2,3-triazol-1-yl)ethyl)pyridin-2(1H)-one]: at most 50 nM.
To `COc1cc(-c2cn(C(C)n3ccc(N4CCC[C@@H](NCC5CCC5)C4)cc3=O)nn2)cnc1C` (stereo partly drawn) [Compound 104, 4-((R)-3-((cyclobutylmethyl)amino)piperidin-1-yl)-1-(1-(4-(5-methoxy-6-methylpyridin-3-yl)-1H-1,2,3-triazol-1-yl)ethyl)pyridin-2(1H)-one] belongs 50 to 500 nM.

For the origin of these results see patent publication US20250002475A1 (EPICS THERAPEUTICS, priority 2023, published 2025).
